In US9181116B2, “Organophosphorus derivatives and use thereof as uncoupling agents” (RHODIA OPERATIONS, priority 2009, dated 2015):

Legend:
[1] = tested on: activated sludge from the urban STEP of St-Fons; assay: Chemostat biological pilot, reduction of activated sludge production (flash mixing); settings: 2.9 ppm, 3 months injection
Excerpt: Detection of the reduction of activated sludge by an organophosphonium derivative in a Chemostat® biological pilot.
Tests on biological pilots continuously fed with synthetic effluent dealt with the molecule of Ex2 (Example 2 above), show significant uncoupling effects on the reduction of sludge production. The biological pilots have a volume of 5 liters and are continuously aerated; a purge of the latter is made everyday (except on weekends) in order to obtain a sludge age of about 7 days. The biological pilots were seeded with activated sludge from the urban STEP of St-Fons (France). After a short acclimatization period of the sludge, the treatment with the molecule Ex2 was carried out according to the flash mixing method also described in Example 1 of WO 2004/113236 cited as a reference.
An experiment, for which the total period of injection of the uncoupling product according to the flash mixing method lasted for 3 months, gave the following results:
A complementary experiment, this time using two different grades of the compound Ex2 of Example 2 above, designated as EX21 and EX22a hereafter, gave the following results over a 1 month injection period: […]

[2] = tested on: strain Schinella granuli; assay: Oxytop respirometry screening test (oxygen overconsumption = uncoupling); type: cell-based
Excerpt: In order to evaluate the reduction in sludge production by an uncoupling chemical agent in respirometry (in order to measure oxygen overconsumption, a characteristic signature of the effects of an uncoupling agent), the oxytop® test technique is used containing a synthetic medium and bacterial strains particularly sensitive to uncoupling agents.
The method and the apparatus used are those described in Example 3 of WO 2004/113236 cited as a reference. The strain Schinella granuli was used as an inoculum in this methodology (which differs from Example 3 of WO 2004/113236 which used activated sludge).
They are expressed as an uncoupling percentage relatively to the control (not comprising any uncoupling agent). This means that for Ex2 at 0.05 mg/l, we have an oxygen overconsumption of 18% relatively to the control not comprising any uncoupling agent. THPS (tetrakis(hydromethyl)phosphonium sulfate) produces uncoupling effects in the oxitop® respirometry tests of 16±8% for a rated concentration of 3 ppm, the 95% confidence interval of THPS in terms of uncoupling factor being, values computed from results obtained in 26 Oxitop® tests.

With `O=S(=O)([O-])[O-].OC[P+](CO)(CO)CO.OC[P+](CO)(CO)CO` [THPS, tetrakis(hydromethyl)phosphonium sulfate] the Growth rate [1] was 0.171 g of MLSS/g of removed COD, the “Reduction in growth rate” value ([1]; vs untreated control) was 9.0% and the “Reduction in sludge production” value ([1]; vs untreated control) was 13.6%. The “uncoupling percentage relatively to the control (oxygen overconsumption)” value ([2]; 3 ppm (rated concentration), THPS: average over 26 tests) was 16±8% and the “95% confidence interval in terms of uncoupling factor” value ([2]; 3 ppm, computed from 26 Oxitop tests) was 10-22.
